Paper PMC11944670, “Reshaping [^99mTc]Tc-DT11 to DT14D Tagged with Trivalent Radiometals for NTS1R-Positive Cancer Theranostics” (Pharmaceutics, 2025)
Residues, ends and D or L forms follow the SMILES beside them. *: point of attachment. DOTA = O=C(O)CN1CCN(CC(=O)O)CCN(CC(=O)*)CCN(CC(=O)O)CC1; X1 = Cc1ccc(CCCC(=O)NCCOCCOCCOCCOCC(=O)*)cc1; βAla = NCCC(=O)O

Columns and labels:
human NTS1R = target: T1, human NTS1R (Homo sapiens, UniProt P30989); test: Competitive binding against [125I]I-Tyr3-NT in WiDr cell membrane homogenates; conditions: displacement of [125I]I-Tyr3-NT, WiDr cell membranes, mean ± sd, n = 3
T1 construct: in membrane homogenates obtained from WiDr cells; endogenous in cells; host or cells: WiDr cells (membrane homogenates)
T1 sequence (P30989 whole entry): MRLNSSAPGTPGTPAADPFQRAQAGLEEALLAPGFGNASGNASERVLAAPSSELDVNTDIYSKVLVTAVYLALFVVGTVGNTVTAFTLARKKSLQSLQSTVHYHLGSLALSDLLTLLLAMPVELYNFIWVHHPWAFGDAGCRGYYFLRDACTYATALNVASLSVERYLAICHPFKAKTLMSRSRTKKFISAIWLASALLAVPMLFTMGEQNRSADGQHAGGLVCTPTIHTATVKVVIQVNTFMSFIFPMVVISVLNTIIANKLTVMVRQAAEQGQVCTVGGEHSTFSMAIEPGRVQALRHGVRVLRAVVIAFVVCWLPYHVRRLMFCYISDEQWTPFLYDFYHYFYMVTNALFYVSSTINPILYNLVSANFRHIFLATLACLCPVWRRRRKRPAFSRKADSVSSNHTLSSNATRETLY
Protocol: The affinity of metal-free D[…] and metal-tagged [^natGa]Ga/[^natIn]In/[^natLu]Lu-D[…] (Supplementary Materials) for the human NTS1R was evaluated via competitive binding assays. These assays were performed using the [^125I]I-Tyr^3-NT radioligand in membrane homogenates obtained from WiDr cells, which were stored at -80 °C in 100 μL aliquots of Tris/EDTA buffer (10 mM Tris, 0.1 mM EDTA, pH 7.4). On the day of the experiment, the membrane homogenates were thawed, combined, and diluted in ice-cold binding buffer (BB: 50 mM HEPES, 5.5 mM MgCl2, 0.1 mg/mL bacitracin, 1% w/v BSA, pH 7.4). Each of the above ligands (including NT as a control) was incubated in triplicate at increasing concentrations (ranging from 10^-13 M to 10^-6 M in BB, 30 μL) with [^125I]I-Tyr^3-NT (214 pM in 70 μL BB) and membrane homogenate (300 μL in BB) for 1 h at 22 °C in an Incubator-Orbital Shaker unit (MPM Instr. SrI, Bernareggio, Milan, Italy). […] The filters were washed with ice-cold washing buffer (WB, 10 mM HEPES pH 7.4, 150 mM NaCl), collected individually, placed in separate RIA tubes, and measured for their radioactivity content in a gamma counter (automated multi-sample well-type instrument with a NaI(Tl) 3'' crystal, Canberra Packard Cobra^TM Quantum U5003/1, Auto-Gamma® counting system; Canberra Packard Central Europe GmbH, Schwadorf, Austria). […]

in vivo = test: in vivo; set-up: species or system mice; conditions: male, SCID, mouse, iv, total radioactivity; for tissue uptake at 48 h / tissue uptake at 72 h: Biodistribution
Protocol: The distribution of [^67Ga]Ga/[^111In]In/[^177Lu]Lu-DT14D was investigated in male severe combined immunodeficiency (SCID) mice (49 mice in total, 6 weeks of age on arrival date, 22 ± 4 g, NCSR “Demokritos” Animal House, Athens, Greece) bearing NTS1R-positive AsPC-1 xenografts in their flanks. For xenograft induction, suspensions of freshly harvested AsPC-1 cells (5 × 10^6 cells in 150 µL sterile PBS) were subcutaneously injected into the mice’s flanks. The animals were kept under aseptic conditions and 4 weeks later developed well palpable masses at the inoculation sites (100 ± 50 mg) and biodistribution was conducted. On the day of the experiment, the animals received a bolus (100 μL, in vehicle: saline/EtOH 9/1 v/v) containing the radioligand via the tail vein. The following groups of four animals per time point, per treatment, were included per radioligand (the 4 h block groups comprised 3 animals instead) including the respective (radio)ligand amounts injected: i. 78–91 kBq [^67Ga]Ga-DT14D corresponding to 7–17 pmol DT14D at 1 and 4 h pi plus 4 h block (coinjection with 100 µg NT); ii. 74–92 kBq [^111In]In-DT14D corresponding to 20–25 pmol at 4 h (controls), 4 h pi (Entresto®; animals receiving a slurry of 12 mg/200 µL Entresto® oral gavage 30 min in advance) and 4 h block (coinjection with 100 µg NT); 24 h pi (including both controls and Entresto® mice groups); and iii. 730 kBq [^177Lu]Lu-DT14D corresponding to 40 pmol DT14D at 4, 24, 48, and 72 h pi plus 4 h block (co-injection with 100 µg NT). The animals were euthanized at predetermined time intervals, dissected and blood samples, organs of interest, and tumors were collected, weighed, and counted in the gamma counter. Biodistribution data were calculated as percent of the injected activity per gram tissue (%IA/g) with the aid of suitable standards of the administered activity. Results as the mean %IA/g values ± sd were obtained and statistical analysis was performed with PRISM^TM GraphPad—10.2 Software (San Diego, CA/USA), applying 2-way ANOVA with Tukey’s post hoc analysis, or, in the case of two variables, Šídák’s multiple comparisons test was adopted; differences with p < 0.05 were considered as statistically significant.

[1] = 730 kBq, Tumor/Intestines ratio

## CC[C@H](C)[C@H](NC(=O)[C@H](Cc1ccc(O)cc1)NC(=O)[C@@H]1CCCN1C(=O)[C@H](CCCNC(=N)N)NC(=O)[C@H](CCCNC(=N)N)NC(=O)[C@H](CCCCNC(=O)COCCOCCOCCOCCNC(=O)CCCc1ccc(C)cc1)NC(=O)CCNC(=O)CCNC(=O)CCNC(=O)CN1CCN(CC(=O)O)CCN(CC(=O)O)CCN(CC(=O)O)CC1)C(=O)N[C@@H](CC(C)C)C(=O)O [DT14D, DOTA-βAla-βAla-βAla-Lys(MPBA-PEG4)^7-Arg-Arg-Pro-Tyr-Ile-Leu-OH] ({DOTA-βAla-βAla-βAla}-K(X1)RRPYIL-OH)
Human NTS1R
  IC50: 2.56 ± 0.26 nM

## CC[C@H](C)[C@H](NC(=O)[C@H](Cc1ccc(O)cc1)NC(=O)[C@@H]1CCCN1C(=O)[C@H](CCCNC(=N)N)NC(=O)[C@H](CCCNC(=N)N)NC(=O)[C@H](CCCCNC(=O)COCCOCCOCCOCCNC(=O)CCCc1ccc(C)cc1)NC(=O)CCNC(=O)CCNC(=O)CCNC(=O)CN1CCN(CC(=O)O)CCN(CC(=O)O)CCN(CC(=O)O)CC1)C(=O)N[C@@H](CC(C)C)C(=O)O [[^177Lu]Lu-DT14D, metal not drawn] ({DOTA-βAla-βAla-βAla}-K(X1)RRPYIL-OH)
In vivo; 40 pmol, Tumor/Blood ratio
  tissue to tissue ratio at 72 h: 29.8 ± 7.43
In vivo; 40 pmol, Tumor/Liver ratio
  tissue to tissue ratio at 48 h: 1.63 ± 0.14
  tissue to tissue ratio at 72 h: 1.44 ± 0.19
In vivo; 40 pmol, Tumor/Lungs ratio
  tissue to tissue ratio at 48 h: 11.4 ± 1
  tissue to tissue ratio at 72 h: 9.66 ± 1.43
In vivo; 40 pmol, Tumor/Pancreas ratio
  tissue to tissue ratio at 48 h: 20.4 ± 1.96
  tissue to tissue ratio at 72 h: 16.2 ± 5.04
In vivo; 730 kBq, AsPC-1 Tumor
  tissue uptake at 48 h: 1.56 ± 0.17 %ID/g
  tissue uptake at 72 h: 1.24 ± 0.2 %ID/g
In vivo; 730 kBq, Blood
  tissue uptake at 48 h: 0.05 ± 0.01 %ID/g
  tissue uptake at 72 h: 0.04 %ID/g
In vivo; 730 kBq, Femur
  tissue uptake at 48 h: 0.38 ± 0.03 %ID/g
  tissue uptake at 72 h: 0.35 ± 0.03 %ID/g
In vivo; 730 kBq, Heart
  tissue uptake at 48 h: 0.07 ± 0.01 %ID/g
  tissue uptake at 72 h: 0.06 ± 0.01 %ID/g
In vivo; 730 kBq, Intestines
  tissue uptake at 48 h: 0.36 ± 0.01 %ID/g
  tissue uptake at 72 h: 0.27 ± 0.02 %ID/g
In vivo; 730 kBq, Kidneys
  tissue uptake at 48 h: 0.88 ± 0.06 %ID/g
  tissue uptake at 72 h: 0.57 ± 0.15 %ID/g
In vivo; 730 kBq, Liver
  tissue uptake at 48 h: 0.96 ± 0.05 %ID/g
  tissue uptake at 72 h: 0.86 ± 0.1 %ID/g
In vivo; 730 kBq, Lungs
  tissue uptake at 48 h: 0.14 %ID/g
  tissue uptake at 72 h: 0.13 ± 0.04 %ID/g
In vivo; 730 kBq, Muscle
  tissue uptake at 48 h: 0.04 ± 0.01 %ID/g
  tissue uptake at 72 h: 0.04 ± 0.02 %ID/g
In vivo; 730 kBq, Pancreas
  tissue uptake at 48 h: 0.07 ± 0.01 %ID/g
  tissue uptake at 72 h: 0.08 ± 0.02 %ID/g
In vivo; 730 kBq, Spleen
  tissue uptake at 48 h: 1.6 ± 0.58 %ID/g
  tissue uptake at 72 h: 1.49 ± 0.51 %ID/g
In vivo; 730 kBq, Stomach
  tissue uptake at 48 h: 0.07 ± 0.01 %ID/g
  tissue uptake at 72 h: 0.04 ± 0.01 %ID/g
In vivo; 730 kBq, Tumor/Blood ratio
  tissue to tissue ratio at 48 h: 30.9 ± 3.67
In vivo; 730 kBq, Tumor/Heart ratio
  tissue to tissue ratio at 48 h: 23 ± 2.32
  tissue to tissue ratio at 72 h: 20.1 ± 3.03
In vivo; [1]
  tissue to tissue ratio at 48 h: 4.28 ± 0.33
  tissue to tissue ratio at 72 h: 4.65 ± 0.91
In vivo; 730 kBq, Tumor/Kidneys ratio
  tissue to tissue ratio at 48 h: 1.78 ± 0.3
  tissue to tissue ratio at 72 h: 2.26 ± 0.49
In vivo; 730 kBq, Tumor/Muscle ratio
  tissue to tissue ratio at 48 h: 39.2 ± 5.49
  tissue to tissue ratio at 72 h: 36.1 ± 14.6
In vivo; 730 kBq, Tumor/Spleen ratio
  tissue to tissue ratio at 48 h: 1.1 ± 0.51
  tissue to tissue ratio at 72 h: 0.89 ± 0.25
In vivo; 730 kBq, Tumor/Stomach ratio
  tissue to tissue ratio at 48 h: 23.8 ± 2.17
  tissue to tissue ratio at 72 h: 26.6 ± 5.58
